Results reported in patent publication US20200038393A1, “APOMORPHINE PLUS BUSPIRONE COMBINATION FOR MEMORY REVIVAL” (priority 2018, published 2020).

Legend:
[1] = Exploratory activity in novel environment of an open field; assay type: in vivo; conditions: rats
Description: Open field consisted of a square area (76×76 cm) with walls 42 cm high. Floor of the apparatus was divided by lines into 25 squares of equal size. Experiment was conducted in a quiet room under white light. Animals were tested 24 hr post 1st and 6th apomorphine injection. Numbers of squares crossed with all four paws and latency to move from the central square were scored for 5 min.

[2] = Morris water maze test (learning acquisition, memory consolidation, retention); assay type: in vivo, rats
Description: The Morris water maze test was conducted after repetitive apomorphine injections and post-conditioning. Water temperature was at room temperature, 21±1° C. The platform (10 cm×10 cm) was made of clear acrylic and was hidden 2 cm below the surface of water in a fixed location. Water was made opaque by adding milk to it.
During training phase, each rat was placed into the water facing the wall of the tank and allowed 120 sec to locate and climb onto the submerged platform. The rat was allowed to stay on the platform for 10 sec. […] After the training animals were tested three times.
Each rat was tested immediately after training. Learning acquisition was determined by recording the initial latency (IL; the time taken by each rat to relocate the hidden platform).
Rats were tested for memory consolidation 60 min post training. It was determined by recording the retention latency (RL; the time taken by each rat to locate the hidden platform 1 h after training). The cut off time for each session was 2 min.
Rats were tested for memory retention 24 hr post training session. Memory retention was determined by recording the retention latency (RL; the time taken by each rat to locate the hidden platform 24 hr post training). The cut off time for each session was 2 min.

[3] = Conditioned place preference (CPP) test for addictive/reinforcing effects; assay type: in vivo, rats
Text: Apparatus for Conditioned Place Preference
A three compartment conditioned place preference (CPP) apparatus with an unbiased design was used to monitor drug-induced reinforcement. The apparatus was made up of transparent plastic Perspex. The compartments were separated by sliding guillotine doors.
The end (preference) compartments (26×26×26 cm each) provided distinct contexts, with one compartment having black horizontal stripes on side walls, the other compartment had vertical black stripes. […] The experiment was conducted in three distinct phases: pre-conditioning, conditioning and post-conditioning.
An animal introduced in the CPP apparatus from the middle compartment and guillotine doors were raised to open. The animal was allowed to explore the entire apparatus for 10 min. Time spent in each compartment was recorded.
(§1) This phase started one day after pre-conditioning phase, animals were randomly assigned to six groups, each containing six animals: (i) buspirone (0 mg/kg)-saline, (ii) buspirone (0 mg/kg)-[…], (iii) buspirone (1 mg/kg)-saline, (iv) buspirone (1 mg/kg)-apomorphine, (v) buspirone (2 mg/kg)-saline and (vi) buspirone (2 mg/kg)-apomorphine injected animals. Over next 12 days (day 1 to day 12) animals went through conditioning (one session per day) in which they were confined to either the horizontal or vertical stripe compartment by raising the respective guillotine door. On day 1, 3, 5, 7, 9 and 11 animals of all groups were injected with saline (1 ml/kg) and placed immediately in the assigned ‘Non-Drug paired’ compartment for 30 min. After which the animals were kept back in their home cages. On every other day, i.e. day 2, 4, 6, 8, 10, and 12 control and test animals were injected with saline, buspirone and/or apomorphine as assigned above. Immediately after injections, animals were placed in the ‘Drug paired’ compartment for 30 min. The animals picked from the drug paired compartment were placed back in their home cages.
The test was carried out on day 13, 24 hr post last conditioning session, in a drug free state. Each animal was tested only once. As in the pre-conditioning phase, the guillotine doors were removed and rat was given access to the entire apparatus for 10 min. Time spent in ‘Drug paired’ compartment was monitored.

[4] = Motor behavior (cage crossings) and % psychosis like effects during conditioning phase; assay type: in vivo; conditions: rats
Description: as §1
Motor behavior was also monitored during conditioning phase. Animals confined to a compartment were moving across the compartment. Activity scores were counted as number of cage crossings for 10 min starting 5 min post injection.

[5] = buspirone 1 mg/kg with apomorphine, rats
[6] = buspirone co-injected animals (summary statement)
[7] = buspirone 1 mg/kg co-administered with apomorphine 1 mg/kg, rats
[8] = buspirone 1 mg/kg co-treated with apomorphine 1 mg/kg

Row | Post-conditioning values of time spent in the drug paired compartment ([3]; apomorphine 1 mg/kg, repeated, vs pre-conditioning/saline, rats) | % reinforcement ([3]; apomorphine 1 mg/kg, rats) | Motor activities post repeated administration ([4]; apomorphine 1 mg/kg, repeated administration) | % psychosis like effects ([4]; apomorphine 1 mg/kg) | Compound | Effect on apomorphine-increased exploratory activity ([1]; buspirone 1 mg/kg, after 6th apomorphine injection) | Effect on apomorphine-increased learning acquisition [2, 5] | Effect on apomorphine-increased memory consolidation [2, 5] | Effect on apomorphine-increased memory retention [2, 5] | Memory enhancing effects of apomorphine [2, 6] | Effect on apomorphine-induced increases in post conditioning values of time spent in drug paired compartment [3, 7] | Reinforcement effects of apomorphine [3, 7] | Addiction to apomorphine [3, 6] | Effect on % psychosis like effects produced by apomorphine [4, 8] | Effect on apomorphine-increased motor activities post repeated administration [4, 8] | Exploratory activity in open field ([1]; apomorphine alone) | Memory consolidation (time taken to reach platform) ([2]; apomorphine vs saline treated animals, 60 min post training, rats) | Memory retention (time taken to reach platform) ([2]; apomorphine vs saline treated animals, 24 hr post training, rats) | Learning acquisition (time taken to reach platform) ([2]; apomorphine vs saline treated animals, tested immediately after training, rats) | Motor activities post single administration ([4]; apomorphine 1 mg/kg, single administration)
1 |  |  |  |  | O=C1CC2(CCCC2)CC(=O)N1CCCCN1CCN(c2ncccn2)CC1 [buspirone] | attenuated | further potentiated | further potentiated | further potentiated | potentiated | significantly attenuates | did not occur | reduced | attenuated | attenuated |  |  |  |  | 
2 | much higher | increased | increased | produced | CN1CCc2cccc3c2[C@H]1Cc1ccc(O)c(O)c1-3 [apomorphine] |  |  |  |  |  |  |  |  |  |  | increased | increase | increase | increase | increase
